# Reference: patent US5260327A, “Methods for inhibiting the proliferation of brain and hepatic metastases by using lonidamine” (priority 1992, dated 1993)
# Entries after “also recorded” stand apart in the source; their conditions may differ.
# Tests used:
# HeLa cells = assay: Effect of gossypol on cell multiplication at 37° C.; format: cell-based, human
# Protocol: (§1) Experiments were carried out with HeLa S-3 cells grown in Eagle's minimal essential medium supplemented with 10% fetal calf serum.
# (§2) The pH of the culture medium was adjusted by varying the CO2 content of the gas phase within the flasks. The buffering system of Eagle's minimal essential medium consisted of 26 mM NaHCO3 at 5% CO2 for neutral pH of 7.4. To obtain a pH of 6.7, for example, the flasks were flushed with the gas mixtures containing 26% CO2. The pH of the culture medium was monitored throughout the treatment procedures by sealing a combination electrode in a treatment vessel and monitored with temperature-compensated digital pH meter.
# (§3) Gossypol was dissolved in DMSO immediately prior to experiments. DMSO produced no enhancement of hyperthermic cytotoxicity with the range studied.
# Preliminary experiments were carried out to determine the effect of gossypol on cell division. Exponentially growing HeLa cells were exposed to the drug for 72 hours at 37° C. Control cells grew exponentially with a doubling time of approximately 19 hours.
# HeLa S-3 cells [1] = assay: Effect of gossypol on cell survival at elevated temperature, pH and glucose conditions; format: cell-based, human; conditions: for viability at 10 µg/mL: Homo sapiens, HeLa S3
# Protocol: as §1
# Plated monolayer cells were heated within 0.05° of the desired temperature by totally immersing plastic culture flasks in a heated water bath. Water bath temperatures were verified by a National Bureau of Standards thermometer.
# as §2
# (§4) The "glucose-deprived" medium was prepared by adding 10% dialyzed fetal calf serum to the culture medium without glucose. The dialyzed fetal calf serum contained less than 1 mg glucose per 100 ml so that the final concentration of glucose in the "glucose-deprived" medium was less than 0.001 mg per ml.
# as §3
# For example, at 10 μg/m. and 2 hours exposure at 42° C., the cells survival is reduced to 1% under acidic condition. Heat treatment alone reduces the cell survival to only 50% of the control.
# Since gossypol has been reported to interfere with cellular energy metabolism, experiments were performed to determine the influence of glucose on the cytotoxic effect of gossypol. […] The survival of glucose-fed cells exposed to the same treatment was approximately 10% while that of glucose-deprived cells can further enhance the cytotoxic effect of gossypol at elevated temperature.
# spermatogenesis = conditions: in vivo; cited from earlier work
# testicular tissues = conditions: cited from earlier work
# [2] = tested on: cultured tumor cell lines; conditions: cited from earlier work
# [3] = tested on: glycolytic and mitochondrial bound enzymes; conditions: cited from earlier work
# MCA mammary carcinoma = assay: Radiation enhancement in the transplanted MCA mammary carcinoma, with or without mild hyperthermia; format: in vivo, murine
# Protocol: Nicotinamide was administered intraperitoneal one (1) […] before irradiation. Localized mild hyperthermia (41° C.) was applied for one (1) hour immediately prior to irradiation.
# Meth-A fibrosarcoma = assay: Radiation enhancement by nicotinamide in Meth-A fibrosarcoma; format: in vivo, murine; conditions: radiosensitive tumor
# From the text: The mechanism by which nicotinamide produces radiation enhancement is not established.
# cell culture models = assay: Radiation enhancement by nicotinamide in cell culture; format: cell-based
# From the text: (22) See FIGS. 9 and 10. As noted previously, the following DMF's were obtained for the respective experimental conditions: Nicotinamide+Radiation Therapy=1.36, Hyperthermia+Radiation Therapy=1.36, Nicotinamide+Hyperthermia+Radiation Therapy=1.64.
# [4] = tested on: C3H mammary adenocarcinoma; conditions: transplanted C3H mammary adenocarcinoma; cited from earlier work
# [5] = tested on: EMT-6, Lewis Lung, and RIF-1 tumors; conditions: injection prior to radiation treatment; cited from earlier work
# [6] = tested on: poly-ADP ribose synthetase; conditions: cited from earlier work
# [7] = in vivo; cited from earlier work
# [8] = Tolerability of nicotinamide in mice; conditions: optimal dose of 0.5 gm/kg (1.5 gm/m^2)
# HeLa S-3 cells [9] = assay: cells; format: cell-based, human; conditions: for viability at 10 µg/mL: Homo sapiens, HeLa S3, 24 hours
# Protocol: Experiments were carried out with HeLa S-3 cells grown in Eagle's minimal essential medium supplemented with 10% fetal calf serum. […] No antifungal agent was used.
# Cell survival was assayed by colony-forming ability of plated single cells to obtain quantitative dose-survival curves. Details of cloning experiments including colony court have been described elsewhere (See, e.g., Kim et al. supra).
# Plated a synchronous monolayer cells were heated to within 0.05° C. of the desired temperature by totally immersing plastic culture flasks in a water bath. Water bath temperatures were verified by a National Bureau of Standards calibrated thermometer.
# The pH of the culture medium was adjusted by varying the CO2 content of the gas phase within the flasks. […] The pH of the culture medium was monitored throughout the treatment procedures by sealing a combination electrode in a treatment vessel and monitored with a temperature-compensated digital pH meter.
# as §4
# cells = conditions: high doses; cited from earlier work
# [10] = human cancer cells (HeLa), heated
# [11] = acidic pH, glucose-deprived cells
smiles,measurement,setting,value
Cc1cc2c(C(C)C)c(O)c(O)c(C=O)c2c(O)c1-c1c(C)cc2c(C(C)C)c(O)c(O)c(C=O)c2c1O [gossypol],growth rate versus control,HeLa cells; 1.25 μg/ml,the same as that of the control cells
same,doubling time,"HeLa cells; 2.5 μg/ml, incubation times greater than 24 hours",a lengthening of doubling time was observed
same,growth curve versus control,"HeLa cells; 2.5 μg/ml, initial 24 hours",not significantly different from the control
same,cell growth (multiplication),"HeLa cells; 5, 10 and 20 μg/ml, 72 hours",grew exponentially for the first 24 hour period and then remained stationary
same,"cytotoxicity, glucose deprivation at 37° C.","HeLa S-3 cells [1]; 10 μg/ml, glucose-deprived, 37° C., pH 7.4",no apparent cytotoxicity
same,"cell killing, glucose deprivation at 42° C.","HeLa S-3 cells [1]; 10 μg/ml, glucose-deprived, 42° C. for 4 hours, pH 7.4",a substantial increase in cell killing
same,drug toxicity (cell survival),"HeLa S-3 cells [1]; 5 and 10 μg/ml, up to 4 hours, 37° C., acidic or neutral conditions",no appreciable drug toxicity
same,viability at 10 µg/mL,"HeLa S-3 cells [1]; 10 μg/ml, 2 hours exposure at 42° C., acidic condition (heat alone: 50% of control), read-out: cell survival",1%
same,viability at 10 µg/mL,"HeLa S-3 cells [1]; 10 μg/ml, glucose-fed, 42° C. for 4 hours, pH 7.4, read-out: survival of glucose-fed cells",~10%
same,pH dependence of cytotoxic effect of hyperthermia on drug-treated cells,"HeLa S-3 cells [1]; elevated temperature, acidic vs neutral",most pronounced under acidic conditions
same,hyperthermic sensitization,HeLa S-3 cells [1]; [10],effective hyperthermic sensitizers of human cancer cells
same,inhibition of spermatogenesis,spermatogenesis,inhibitor of spermatogenesis
same,toxicity to testicular tissues,testicular tissues; in vivo,selectively toxic to testicular tissues
same,effect on other tissues,testicular tissues; non-testicular tissues,no observable effect on other tissues
same,anti-tumor effects,[2],anti-tumor effects against cultured tumor cell lines
same,enzyme inhibition,[3],inhibition of glycolytic and mitochondrial bound enzymes
NC(=O)c1cccnc1 [nicotinamide],"radiation dose modification factor, nicotinamide + hyperthermia + radiation","MCA mammary carcinoma; 0.5 gm/kg 1 hour prior to radiation, 41° C. for one hour, b79 statement",1.77
same,"DMF, Nicotinamide+Hyperthermia+Radiation Therapy","MCA mammary carcinoma; 125 to 500 mg/kg i.p. one hour prior to irradiation, 1 hour heating at 41° C., b86 statement",1.64
same,"DMF, Nicotinamide+Radiation Therapy","MCA mammary carcinoma; 125 to 500 mg/kg i.p. one hour prior to irradiation, b86 statement",1.36
same,enhancement of effects of radiation and radiation plus hyperthermia,"MCA mammary carcinoma; 125 to 500 mg/kg i.p., one hour prior to irradiation, 41° C. 1 hour",clear enhancement of the effects of radiation and radiation plus hyperthermia
same,"DMF, nicotinamide plus radiation (without hyperthermia)","MCA mammary carcinoma; without hyperthermia, b79 statement",1.35
same,radiation enhancement in oxic Meth-A fibrosarcoma,Meth-A fibrosarcoma,inactive against the oxic Meth-A fibrosarcoma model; also recorded: no radio-enhancing effect
same,activity in cell culture models,cell culture models; in our hands,not active in cell culture models
same,radiation enhancement in cell culture,cell culture models; nicotinamide concentrations <10 mM,No radiation enhancement
same,radiation enhancing effects,[4],radiation enhancing effects
same,optimal timing of drug for radiation enhancement,[5],1 to 3 h
same,inhibition of poly-ADP ribose synthetase,[6],inhibitor of poly-ADP ribose synthetase
same,safety in humans,[7],safe and associated with only a low incidence of side effects
same,toxicity in mice,[8],non-toxic in mice
O=C(O)c1cccnc1 [nicotinic acid],"radiation enhancement, MCA mammary tumor, nicotinic acid",MCA mammary carcinoma; even at the LD10 dosage,did not produce radiation enhancement
COC(=O)c1ccccc1-c1c2ccc(=N)cc-2oc2cc(N)ccc12 [rhodamine 123],"cell surviving fraction, initial 4 hour exposure","HeLa S-3 cells [9]; 10 μg/ml, 4 hours, 37° C., glucose-fed or glucose-deprived",no appreciable reduction in the cell surviving fraction
same,"cell survival at 37° C., exposure limit","HeLa S-3 cells [9]; 37° C., 4 hour",did not produce any detectable reduction in cell survival
same,"effect on hyperthermic cytotoxicity, glucose-deprived vs glucose-fed cells","HeLa S-3 cells [9]; 40, 41 and 42° C., up to 4 hours",selectively increased the cytotoxic effects of hyperthermia in glucose-deprived cells relative to glucose-fed cells
same,viability at 10 µg/mL,"HeLa S-3 cells [9]; 10 μg/ml, 37° C., glucose-deprived, read-out: surviving fraction in the absence of glucose",< 1%
same,viability at 10 µg/mL,"HeLa S-3 cells [9]; 10 μg/ml, 37° C., glucose-fed, read-out: surviving fraction in the presence of glucose",80%
same,cytotoxicity at acidic pH relative to pH 7.4,HeLa S-3 cells [9]; [11],less than that observed at pH 7.4
same,influence of acidic pH on cytotoxicity of heat,HeLa S-3 cells [9]; [11],did not substantially enhance the cytotoxicity of heat in glucose-deprived cells
same,dependence of potentiation of heat effects,"HeLa S-3 cells [9]; glucose-deprived cells, two hours",dependent on the elevated temperature and drug concentration in glucose-deprived cells
same,hyperthermia enhancement in glucose-fed cells,"HeLa S-3 cells [9]; glucose-fed, different temperatures for two hours",No hyperthermia enhancement
same,hyperthermic sensitization,HeLa S-3 cells [9]; [10],effective hyperthermic sensitizers of human cancer cells
same,effects of continuous exposure,cells,"inhibit oxidative phosphorylation, to arrest cells in G1 phase, and to induce loss of reproductive capacity"
